Test results published in patent publication US8846719B2, “Isoxazolo-pyridine derivatives” (Roche Palo Alto LLC, priority 2007, dated 2014).
Where two headings read alike, the source gives them in different places.

Target: human GABA A receptor α5β3γ2 (Homo sapiens (Human), UniProt P18507+P31644)
Assay: [3H]flumazenil competition binding assay, human GABA A α5β3γ2 receptors expressed in HEK293 cells
Method: The affinity of compounds at GABA A receptor subtypes was measured by competition for [3H]flumazenil (85 Ci/mmol; Roche) binding to HEK293 cells expressing rat (stably transfected) or human (transiently transfected) receptors of composition α1β3γ2, α2β3γ2, α3β3γ2 and α5β3γ2.
Cell pellets were suspended in Krebs-tris buffer (4.8 mM KCl, 1.2 mM CaCl2, 1.2 mM MgCl2, 120 mM NaCl, 15 mM Tris; pH 7.5; binding assay buffer), homogenized by polytron for ca. 20 sec on ice and centrifuged for 60 min at 4° C. (50000 g; Sorvall, rotor: SM24=20000 rpm). The cell pellets were resuspended in Krebs-tris buffer and homogenized by polytron for ca. 15 sec on ice. Protein was measured (Bradford method, Bio-Rad) and aliquots of 1 mL were prepared and stored at −80° C.
Assays were incubated to equilibrium for 1 hour at 4° C. and harvested onto GF/C uni-filters (Packard) by filtration using a Packard harvester and washing with ice-cold wash buffer (50 mM Tris; pH 7.5). After drying, filter-retained radioactivity was detected by liquid scintillation counting. Ki values were calculated using Excel-Fit (Microsoft) and are the means of two determinations.

[1] = human receptor, displacement of [3H]flumazenil (0.5 nM), means of two determinations, read-out: hKi GABAAa5

Compound | Ki [1] [nM] | Ki [nM]
CCOC(=O)CN1CCCC(NC(=O)c2ccc(OCc3c(-c4ccccc4)noc3C)nc2)C1 (centres unmarked) [Example 40, (3-{[6-(5-Methyl-3-phenyl-isoxazol-4-ylmethoxy)-pyridine-3-carbonyl]-amino}-piperidin-1-yl)-acetic acid ethyl ester] | 13.8 | 
Cc1onc(-c2ccccc2)c1COc1ccc(C(=O)NC2CCCN(CC(=O)O)C2)cn1 (centres unmarked) [Example 41, (3-{[6-(5-Methyl-3-phenyl-isoxazol-4-ylmethoxy)-pyridine-3-carbonyl]-amino}-piperidin-1-yl)-acetic acid] | 9.3 | 
CCNC(=O)CN1CCCC(NC(=O)c2ccc(OCc3c(-c4ccccc4)noc3C)nc2)C1 (centres unmarked) [Example 42, N-(1-Ethylcarbamoylmethyl-piperidin-3-yl)-6-(5-methyl-3-phenyl-isoxazol-4-ylmethoxy)-nicotinamide] | 13.7 | 
Cc1onc(-c2ccccc2)c1COc1ccc(C(=O)NC2CCCN(CC(=O)NC3CC3)C2)cn1 (centres unmarked) [Example 43, N-(1-Cyclopropylcarbamoylmethyl-piperidin-3-yl)-6-(5-methyl-3-phenyl-isoxazol-4-ylmethoxy)-nicotinamide] | 12.3 | 
Cc1onc(-c2ccccc2)c1COc1ccc(C(=O)NC2CCCN(CC(=O)NCC(F)(F)F)C2)cn1 (centres unmarked) [Example 44, 6-(5-Methyl-3-phenyl-isoxazol-4-ylmethoxy)-N-{1-[(2,2,2-trifluoro-ethylcarbamoyl)-methyl]-piperidin-3-yl}-nicotinamide] | 10.1 | 
Cc1onc(-c2ccccc2)c1COc1ccc(C(=O)NC2CCCN(CC(=O)NCCO)C2)cn1 (centres unmarked) [Example 45, N-{1-[(2-Hydroxy-ethylcarbamoyl)-methyl]-piperidin-3-yl}-6-(5-methyl-3-phenyl-isoxazol-4-ylmethoxy)-nicotinamide] | 8.4 | 
Cc1onc(-c2ccccc2)c1COc1ccc(C(=O)NC2CCCN(CC(=O)NC3CCOCC3)C2)cn1 (centres unmarked) [Example 46, 6-(5-Methyl-3-phenyl-isoxazol-4-ylmethoxy)-N-{1-[(tetrahydro-pyran-4-ylcarbamoyl)-methyl]-piperidin-3-yl}-nicotinamide] | 13.1 | 
Cc1onc(-c2ccccc2)c1COc1ccc(C(=O)NC(C)(C)C)cn1 [Example 47, N-tert-Butyl-6-(5-methyl-3-phenyl-isoxazol-4-ylmethoxy)-nicotinamide] | 11.8 | 
Cc1onc(-c2ccccc2)c1COc1ccc(C(=O)Nc2ccccc2)cn1 [Example 48, 6-(5-Methyl-3-phenyl-isoxazol-4-ylmethoxy)-N-phenyl-nicotinamide] | 38 | 
Cc1onc(-c2ccccc2)c1COc1ccc(C(=O)Nc2ccc(F)cc2)cn1 [Example 49, N-(4-Fluoro-phenyl)-6-(5-methyl-3-phenyl-isoxazol-4-ylmethoxy)-nicotinamide] | 12.1 | 
Cc1onc(-c2ccccc2)c1COc1ccc(C(=O)N(C)C2CCOCC2)cn1 [Example 50, N-Methyl-6-(5-methyl-3-phenyl-isoxazol-4-ylmethoxy)-N-(tetrahydro-pyran-4-yl)-nicotinamide] | 20.2 | 
Cc1onc(-c2ccccc2)c1COc1ccc(C(=O)N2CCCCC2)cn1 [Example 51, [6-(5-Methyl-3-phenyl-isoxazol-4-ylmethoxy)-pyridin-3-yl]-piperidin-1-yl-methanone] | 50.8 | 
Cc1onc(-c2ccccc2)c1COc1ccc(C(=O)N2CCC(F)(F)CC2)cn1 [Example 52, (4,4-Difluoro-piperidin-1-yl)-[6-(5-methyl-3-phenyl-isoxazol-4-ylmethoxy)-pyridin-3-yl]-methanone] | 16.8 | 
Cc1onc(-c2ccccc2)c1COc1ccc(C(=O)N2CCOCC2)cn1 [Example 53, [6-(5-Methyl-3-phenyl-isoxazol-4-ylmethoxy)-pyridin-3-yl]-morpholin-4-yl-methanone] | 23.6 | 
Cc1onc(-c2ccccc2)c1COc1ccc(C(=O)N2CCSCC2)cn1 [Example 54, [6-(5-Methyl-3-phenyl-isoxazol-4-ylmethoxy)-pyridin-3-yl]-thiomorpholin-4-yl-methanone] | 25.6 | 
Cc1onc(-c2ccccc2)c1COc1ccc(C(=O)N2CCS(=O)(=O)CC2)cn1 [Example 55, (1,1-Dioxo-1,6-thiomorpholin-4-yl)-[6-(5-methyl-3-phenyl-isoxazol-4-ylmethoxy)-pyridin-3-yl]-methanone] | 22.8 | 
Cc1onc(-c2ccccc2)c1COc1cc(OCc2ccccc2)ccn1 [Example 56, 4-Benzyloxy-2-(5-methyl-3-phenyl-isoxazol-4-ylmethoxy)-pyridine] | 35.1 | 
Cc1onc(-c2ccccc2)c1COc1cc(C2=CCN(C)CC2)ccn1 [Example 57, 1-Methyl-2′-(5-methyl-3-phenyl-isoxazol-4-ylmethoxy)-1,2,3,6-tetrahydro-[4,4′]bipyridinyl] |  | 32.1
Cc1onc(-c2ccccc2)c1COc1cc(C(=O)NCC(F)(F)F)ccn1 [Example 58, 2-(5-Methyl-3-phenyl-isoxazol-4-ylmethoxy)-N-(2,2,2-trifluoro-ethyl)-isonicotinamide] | 37.8 | 
Cc1onc(-c2ccccc2)c1COc1cc(C(=O)NC2CCOCC2)ccn1 [Example 59, 2-(5-Methyl-3-phenyl-isoxazol-4-ylmethoxy)-N-(tetrahydro-pyran-4-yl)-isonicotinamide] | 55.4 | 
Cc1nc(OCc2c(-c3ccccc3)noc2C)ccc1C(=O)NC1CCOCC1 [Example 60, 2-Methyl-6-(5-methyl-3-phenyl-isoxazol-4-ylmethoxy)-N-(tetrahydro-pyran-4-yl)-nicotinamide] | 38.7 | 
Cc1onc(-c2ccccc2)c1COc1cc(C(F)(F)F)c(C(=O)O)cn1 [Example 61, 6-(5-Methyl-3-phenyl-isoxazol-4-ylmethoxy)-4-trifluoromethyl-nicotinic acid] | 18.4 | 
Cc1onc(-c2ccccc2)c1COc1cc(C(F)(F)F)c(C(=O)NC(C)C)cn1 [Example 62, N-Isopropyl-6-(5-methyl-3-phenyl-isoxazol-4-ylmethoxy)-4-trifluoromethyl-nicotinamide] | 14.6 | 
Cc1onc(-c2ccccc2)c1COc1cc(C(F)(F)F)c(C(=O)NC2CCOCC2)cn1 [Example 63, 6-(5-Methyl-3-phenyl-isoxazol-4-ylmethoxy)-N-(tetrahydro-pyran-4-yl)-4-trifluoromethyl-nicotinamide] | 10.7 | 
COC(=O)c1cnc(OCc2c(-c3ccccc3)noc2C)c(Br)c1 [Example 64, 5-Bromo-6-(5-methyl-3-phenyl-isoxazol-4-ylmethoxy)-nicotinic acid methyl ester] | 34.4 | 
Cc1onc(-c2ccccc2)c1COc1ncc(C(=O)NC2CCOCC2)cc1Br [Example 65, 5-Bromo-6-(5-methyl-3-phenyl-isoxazol-4-ylmethoxy)-N-(tetrahydro-pyran-4-yl)-nicotinamide] | 24.4 | 
Cc1cc(C(=O)NC2CCOCC2)cnc1OCc1c(-c2ccccc2)noc1C [Example 66, 5-Methyl-6-(5-methyl-3-phenyl-isoxazol-4-ylmethoxy)-N-(tetrahydro-pyran-4-yl)-nicotinamide] | 1.4 | 
Cc1nc(OCc2c(-c3ccccc3)noc2C)c(Br)cc1C(=O)NC1CCOCC1 [Example 67, 5-Bromo-2-methyl-6-(5-methyl-3-phenyl-isoxazol-4-ylmethoxy)-N-(tetrahydro-pyran-4-yl)-nicotinamide] | 47.3 | 
Cc1onc(-c2ccccc2)c1COc1ncc(C(=O)NC(C)C)cc1Br [Example 68, 5-Bromo-N-isopropyl-6-(5-methyl-3-phenyl-isoxazol-4-ylmethoxy)-nicotinamide] | 18.6 | 
